The source of these data is patent US20100004243A1, “PHARMACEUTICAL COMPOUNDS” (Astex Therapeutics Limited, priority 2006, published 2010).

By IC50 is commonly meant the concentration that inhibits the measured activity by half.

The target of one assay is T1, CDK4/CyclinD1 (Homo sapiens, UniProt P11802).
T1 construct: purchased Proqinase
In words: CDK4 kinase inhibitory activity assay (IC50). Type of assay: biochemical. The note with it: read-out: IC50 against CDK4. The protocol:
Assays for CDK4 inhibitory activity can be carried out using the proprietary 33 PanQinase® Activity Assay of Proqinase GmbH, Freiburg, Germany. The assays are performed in 96 well FlashPlates™ (PerkinElmer). In each case, the reaction cocktail (50 μl final volume) is composed of; 20 μl assay buffer (final composition 60 mM HEPES-NaOH, pH 7.5, 3 mM MgCl2, 3 μM Na-orthovanadate, 1.2 mM DTT, 50 μg/ml PEG2000, 5 μl ATP solution (final concentration 1 μM [γ-33P]-ATP (approx 5×10^5 cpm per well)), 5 μl test compound (in 10% DMSO), 10 μl substrate/10 μl enzyme solution (premixed). The final amounts of enzyme and substrate are as below.
The reaction cocktail is incubated at 30° C. for 80 minutes. The reaction is stopped with 50 μl of 2% H3PO4, plates are aspirated and washed twice with 200 μl 0.9% NaCl. Incorporation of ^33P is determined with a microplate scintillation counter. Background values are subtracted from the data before calculating the residual activities for each well. IC50s are calculated using Prism 3.03.
Compounds of the invention can be tested for kinase inhibitory activity using the following protocol.
CDK4/CyclinD1 (Proqinase) is diluted to 12.5 nM in 5 mM Tris pH 7.5, 2.5 mM MgCl2, 25 μM EDTA, 2.5 m M DTT and 125 μM ATP. 10 μl of the enzyme solution is mixed with 10 μl of 100 μl biotin -KAPLSPKKAK4 (Altabioscience, 1 mM stock—10 mg in 2,250 μl H20), 900 μl H2O, 1 μl 10% triton and 35 μCi γ^33P-ATP) and added to 96 well plates along with 5 μl of various dilutions of the test compound in DMSO (up to 4%). The reaction is allowed to proceed for 2 hours before being stopped with an excess of ortho-phosphoric acid (20 μl at 2%).
γ^33P-ATP which remains unincorporated into the biotin -KAPLSPKKAK4 is separated from phosphorylated biotin -KAPLSPKKAK4 on a Millipore MAPH filter plate. The wells of the MAPH plate are wetted with 0.5% orthophosphoric acid, and then the results of the reaction are filtered with a Millipore vacuum filtration unit through the wells. Following filtration, the residue is washed twice with 200 μl of 0.5% orthophosphoric acid. Once the filters have dried, 20 μl of Microscint 20 scintillant is added, and then counted on a Packard Topcount for 30 seconds.
The % inhibition of the CDK4 activity is calculated and plotted in order to determine the concentration of test compound required to inhibit 50% of the CDK4 activity (IC50).

The target in the next assay is CDK2/CyclinA (Homo sapiens, UniProt P24941). The assay can be described thus: Activated CDK2/CyclinA kinase inhibitory activity assay, compared with CDK4. It counts as biochemical. As for the experimental part: Compounds of the invention were tested for kinase inhibitory activity using the following protocol.
Activated CDK2/CyclinA (Brown et al, Nat. Cell Biol., 1, pp 438-443, 1999; Lowe, E. D., et al Biochemistry, 41, pp 15625-15634, 2002) is diluted to 125 pM in 2.5× strength assay buffer (50 mM MOPS pH 7.2, 62.5 mM β-glycerophosphate, 12.5 mM EDTA, 37.5 mM MgCl2, […], 2.5 mM DTT, 2.5 mM sodium orthovanadate, 0.25 mg/ml bovine serum albumin), and 10 μl mixed with 10 μl of histone substrate mix (60 μl bovine histone Hi (Upstate Biotechnology, 5 mg/ml), 940 μl H2O, 35 μCi γ^33P-ATP) and added to 96 well plates along with 5 μl of various dilutions of the test compound in DMSO (up to 2.5%). The reaction is allowed to proceed for 2 to 4 hours before being stopped with an excess of orthophosphoric acid (5 μl at 2%). γ^33P-ATP which remains unincorporated into the histone H1 is separated from phosphorylated histone H1 on a Millipore MAPH filter plate. The wells of the MAPH plate are wetted with 0.5% orthophosphoric acid, and then the results of the reaction are filtered with a Millipore vacuum filtration unit through the wells. Following filtration, the residue is washed twice with 200 μl of 0.5% orthophosphoric acid. Once the filters have dried, 20 μl of Microscint 20 scintillant is added, and then counted on a Packard Topcount for 30 seconds.
The % inhibition of the CDK2 activity is calculated and plotted in order to determine the concentration of test compound required to inhibit 50% of the CDK2 activity (IC50).

T1 sequence (P11802 whole entry): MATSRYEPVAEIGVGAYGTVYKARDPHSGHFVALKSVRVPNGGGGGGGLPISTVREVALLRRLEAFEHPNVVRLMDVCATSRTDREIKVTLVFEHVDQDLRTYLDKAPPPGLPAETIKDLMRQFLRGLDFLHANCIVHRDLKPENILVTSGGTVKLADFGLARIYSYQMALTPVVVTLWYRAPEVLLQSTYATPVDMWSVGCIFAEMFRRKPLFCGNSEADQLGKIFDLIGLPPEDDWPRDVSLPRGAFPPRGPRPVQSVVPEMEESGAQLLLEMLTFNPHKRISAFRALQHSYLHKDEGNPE
T1 sequence (P24385 whole entry partner): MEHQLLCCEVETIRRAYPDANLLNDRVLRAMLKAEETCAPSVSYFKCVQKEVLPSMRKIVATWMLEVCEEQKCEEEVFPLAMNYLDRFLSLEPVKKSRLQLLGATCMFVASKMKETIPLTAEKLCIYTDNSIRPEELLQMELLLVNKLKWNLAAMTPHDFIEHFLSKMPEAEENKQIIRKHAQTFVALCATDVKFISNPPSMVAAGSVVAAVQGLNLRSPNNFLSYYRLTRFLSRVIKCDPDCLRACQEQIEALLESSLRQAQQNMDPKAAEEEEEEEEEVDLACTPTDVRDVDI

On to `O=C(Nc1nnc(CCN2CCCCC2)s1)c1n[nH]cc1NC(=O)c1c(F)cccc1F` [Example 1], for which the IC50 at CDK4/CyclinD1 was less than 5000 nM.

For `O=C(Nc1ccc(N2CCNCC2)cn1)c1n[nH]cc1NC(=O)c1c(Cl)cccc1Cl` [Example 7], the “selectivity for CDK4 relative to CDK2 (in words)” value on CDK2/CyclinA was “selective for CDK4 relative to CDK2”. For the same compound, on CDK4/CyclinD1, the IC50 is less than 100 nM.

As to `CN(C)C1CCN(c2ccc(NC(=O)c3n[nH]cc3NC(=O)c3c(F)cccc3F)nc2)CC1` [Example 8], the “selectivity for CDK4 relative to CDK2 (in words)” value at CDK2/CyclinA is on record as “selective for CDK4 relative to CDK2”. The IC50 on CDK4/CyclinD1 is less than 100 nM.

For `CN(C)C1CCN(c2ccc(NC(=O)c3n[nH]cc3NC(=O)c3c(F)cccc3F)cc2)CC1` [Example 9], the “selectivity for CDK4 relative to CDK2 (in words)” value at CDK2/CyclinA is “selective for CDK4 relative to CDK2”. Also, the IC50 at CDK4/CyclinD1 is less than 100 nM.

Regarding `O=C(Nc1ccc(N2CCNCC2)cn1)c1n[nH]cc1NC(=O)c1c(F)cccc1F` [Example 10], at CDK2/CyclinA, the “selectivity for CDK4 relative to CDK2 (in words)” value is reported as “selective for CDK4 relative to CDK2”. Moreover, the IC50 on CDK4/CyclinD1 was less than 100 nM.
